# Organism: Rattus norvegicus
# Assay: DrugMatrix - Regimen: Daily Repeat
# Format: toxicity, organism-based, Sprague-Dawley
# Parameters: regimen Daily Repeat, gender Male, age 6-8 weeks
# Details: in vivo, po, 35 mg/kg, route oral GAVAGE, dose level Low, vehicle .5 % CMC; for ABSOLUTE BASOPHIL / ABSOLUTE EOSINOPHIL / ABSOLUTE LYMPHOCYTE / ABSOLUTE MONOCYTE / ABSOLUTE SEGMENTED NEUTROPHIL / BASOPHIL / EOSINOPHIL / ERYTHROCYTE COUNT / HEMATOCRIT / HEMOGLOBIN / LEUKOCYTE COUNT / LYMPHOCYTE / MEAN CORPUSCULAR HEMOGLOBIN / MEAN CORPUSCULAR HEMOGLOBIN CONCENTRATION / MEAN CORPUSCULAR VOLUME / MONOCYTE / NEUTROPHIL / NUCLEATED RED BLOOD CELLS / PLATELET COUNT: tissue Blood; for ALANINE AMINOTRANSFERASE / ALBUMIN / ALKALINE PHOSPHATASE / ASPARTATE AMINOTRANSFERASE / BLOOD UREA NITROGEN / CARBON DIOXIDE / CHLORIDE / CHOLESTEROL / CREATINE PHOSPHOKINASE / CREATININE / GLUCOSE / LACTATE DEHYDROGENASE / LIPASE / PHOSPHORUS / POTASSIUM / SODIUM / TOTAL BILIRUBIN / TOTAL PROTEIN / URIC ACID: tissue Plasma
structure (smiles),measurement,setting,value
COC(=O)C1=C(C)NC(C)=C(C(=O)OC)C1c1ccccc1[N+](=O)[O-] [NIFEDIPINE],ABSOLUTE BASOPHIL,"72 h, time 3 day",0 CELLS/uL
same,ABSOLUTE EOSINOPHIL,"72 h, time 3 day",0 CELLS/uL
same,ABSOLUTE LYMPHOCYTE,"72 h, time 3 day",17514.67 CELLS/uL
same,ABSOLUTE MONOCYTE,"72 h, time 3 day",172 CELLS/uL
same,ABSOLUTE SEGMENTED NEUTROPHIL,"72 h, time 3 day",1213.33 CELLS/uL
same,BASOPHIL,"72 h, time 3 day",0%
same,EOSINOPHIL,"72 h, time 3 day",0%
same,ERYTHROCYTE COUNT,"72 h, time 3 day",5.2 x10E6/uL
same,HEMATOCRIT,"72 h, time 3 day",33.43%
same,HEMOGLOBIN,"72 h, time 3 day",12.8 G/DL
same,LEUKOCYTE COUNT,"72 h, time 3 day",18.9 x10E3/uL
same,LYMPHOCYTE,"72 h, time 3 day",92.67%
same,MEAN CORPUSCULAR HEMOGLOBIN,"72 h, time 3 day",24.63 pg
same,MEAN CORPUSCULAR HEMOGLOBIN CONCENTRATION,"72 h, time 3 day",38.27 G/DL
same,MEAN CORPUSCULAR VOLUME,"72 h, time 3 day",64.3 fL
same,MONOCYTE,"72 h, time 3 day",1%
same,NEUTROPHIL,"72 h, time 3 day",6.33%
same,NUCLEATED RED BLOOD CELLS,"72 h, time 3 day",0.33 /100WBC
same,PLATELET COUNT,"72 h, time 3 day",1358.33 x10E3/uL
same,ALANINE AMINOTRANSFERASE,"72 h, time 3 day",46 u/L
same,ALBUMIN,"72 h, time 3 day",4.37 G/DL
same,ALKALINE PHOSPHATASE,"72 h, time 3 day",361.33 u/L
same,ASPARTATE AMINOTRANSFERASE,"72 h, time 3 day",91.33 u/L
same,BLOOD UREA NITROGEN,"72 h, time 3 day",21.67 mg/dL
same,CARBON DIOXIDE,"72 h, time 3 day",24 mmol/L
same,CHLORIDE,"72 h, time 3 day",106.33 MEQ/L
same,CHOLESTEROL,"72 h, time 3 day",90.67 mg/dL
same,CREATINE PHOSPHOKINASE,"72 h, time 3 day",276 u/L
same,CREATININE,"72 h, time 3 day",0.31 mg/dL
same,GLUCOSE,"72 h, time 3 day",142.67 mg/dL
same,LACTATE DEHYDROGENASE,"72 h, time 3 day",570 u/L
same,LIPASE,"72 h, time 3 day",11 u/L
same,PHOSPHORUS,"72 h, time 3 day",11.77 mg/dL
same,POTASSIUM,"72 h, time 3 day",6.88 MEQ/L
same,SODIUM,"72 h, time 3 day",148.6 MEQ/L
same,TOTAL BILIRUBIN,"72 h, time 3 day",0.2 mg/dL
same,TOTAL PROTEIN,"72 h, time 3 day",6.2 G/DL
same,URIC ACID,"72 h, time 3 day",1.67 mg/dL
same,ABSOLUTE BASOPHIL,"120 h, time 5 day",0 CELLS/uL
same,ABSOLUTE EOSINOPHIL,"120 h, time 5 day",0 CELLS/uL
same,ABSOLUTE LYMPHOCYTE,"120 h, time 5 day",11212.33 CELLS/uL
same,ABSOLUTE MONOCYTE,"120 h, time 5 day",196 CELLS/uL
same,ABSOLUTE SEGMENTED NEUTROPHIL,"120 h, time 5 day",1358.33 CELLS/uL
same,BASOPHIL,"120 h, time 5 day",0%
same,EOSINOPHIL,"120 h, time 5 day",0%
same,ERYTHROCYTE COUNT,"120 h, time 5 day",6.29 x10E6/uL
same,HEMATOCRIT,"120 h, time 5 day",40.53%
same,HEMOGLOBIN,"120 h, time 5 day",14.9 G/DL
same,LEUKOCYTE COUNT,"120 h, time 5 day",12.77 x10E3/uL
same,LYMPHOCYTE,"120 h, time 5 day",88.33%
same,MEAN CORPUSCULAR HEMOGLOBIN,"120 h, time 5 day",23.67 pg
same,MEAN CORPUSCULAR HEMOGLOBIN CONCENTRATION,"120 h, time 5 day",36.77 G/DL
same,MEAN CORPUSCULAR VOLUME,"120 h, time 5 day",64.4 fL
same,MONOCYTE,"120 h, time 5 day",1.33%
same,NEUTROPHIL,"120 h, time 5 day",10.33%
same,NUCLEATED RED BLOOD CELLS,"120 h, time 5 day",0 /100WBC
same,PLATELET COUNT,"120 h, time 5 day",1155 x10E3/uL
same,ALANINE AMINOTRANSFERASE,"120 h, time 5 day",57 u/L
same,ALBUMIN,"120 h, time 5 day",4.5 G/DL
same,ALKALINE PHOSPHATASE,"120 h, time 5 day",414.33 u/L
same,ASPARTATE AMINOTRANSFERASE,"120 h, time 5 day",79.67 u/L
same,BLOOD UREA NITROGEN,"120 h, time 5 day",19 mg/dL
same,CARBON DIOXIDE,"120 h, time 5 day",23 mmol/L
same,CHLORIDE,"120 h, time 5 day",104 MEQ/L
same,CHOLESTEROL,"120 h, time 5 day",81.67 mg/dL
same,CREATINE PHOSPHOKINASE,"120 h, time 5 day",210 u/L
same,CREATININE,"120 h, time 5 day",0.21 mg/dL
same,GLUCOSE,"120 h, time 5 day",163.67 mg/dL
same,LACTATE DEHYDROGENASE,"120 h, time 5 day",114.33 u/L
same,LIPASE,"120 h, time 5 day",10 u/L
same,PHOSPHORUS,"120 h, time 5 day",13.37 mg/dL
same,POTASSIUM,"120 h, time 5 day",7.57 MEQ/L
same,SODIUM,"120 h, time 5 day",147 MEQ/L
same,TOTAL BILIRUBIN,"120 h, time 5 day",0.27 mg/dL
same,TOTAL PROTEIN,"120 h, time 5 day",6.5 G/DL
same,URIC ACID,"120 h, time 5 day",2 mg/dL
